In patent US20130059773A1, “COMPOUNDS FOR THE TREATMENT OF INFLAMMATION AND NEUTROPENIA” (priority 2010, published 2013):
“Also recorded” adds a separate entry of the source. Where a SMILES comes first, the peptide text is derived from it. The star is where a group is joined. Cbz = O=C(OCc1ccccc1)*

What was measured:
Format in all cases: cell-based, human
neutrophils [1] = test: Neutrophil apoptosis/survival by phosphatidylserine externalization after annexin-V and 7-AAD labeling; conditions: for Effect of proteasome inhibitors on neutrophil death: neutrophils 15 h at 37° C.
Experimental: Analysis of apoptosis. Neutrophil apoptosis was triggered by incubating neutrophils at 37° C. alone (constitutive apoptosis) or with anti-Fas mAb (10 ng/ml; Beckman-Coulter) or gliotoxin ([…]; Sigma) (Ward et al. 1999, J. Biol. Chem. 274:4309-4318) for the indicated times. Neutrophil apoptosis was evaluated by phosphatidylserine externalization after annexin-V and 7-AAD labeling (Kantari et al. 2007, Blood 110:4086-4095); mitochondrial depolarization after DiOC6 labeling (Moriceau et al. 2009, J. Immuno1.182:7254-7263); caspase-3 and caspase-8 activities measured by spectrophotometry (Biovision) in neutrophil lysates. In DMF-differentiated-PLB985 cells, apoptosis was triggered by gliotoxin or by rTRAIL (10 ng/ml; RD System) (Yin et al. 2005, Int. J. Biochem. Cell Biol. 37:1696-1708) and caspase-8 and caspase-9 activities were determined after gating on CD11b^+ cells using the Caspase-Glow® assay (Promega). Apoptosis-induced chromatin condensation and DNA fragmentation were assessed, respectively, after DNA staining with the blue fluorescent dye Hoechst (5 mg/ml) and propidium-iodide staining (Goepel et al. 2004, J. Leukoc. Biol. 75:836-843). Carboxyp21 ([…], SEQ ID NO: 24) corresponding to the p21 carboxy-terminus sequence (residues 141-160) and containing a RYIRS carboxy-terminal extension to facilitate its cell entry was synthesized and purified (Genecust). A modified peptide in which the charged amino acids responsible for its binding to PCNA have been changed according to dynamic simulation studies ([…], SEQ ID NO: 25) served as control. The effect of PS-341 (LC Laboratories) and MG132 were tested on neutrophil apoptosis and PCNA expression as indicated.

PCNA = PCNA expression in neutrophils by Western blot; conditions: for Effect of proteasome inhibitors on apoptosis-induced PCNA diminution: neutrophils 15 h at 37° C.
Experimental: Western blot analysis and co-immunoprecipitation experiments. Neutrophils were sonicated and cytosolic proteins were analyzed using either the PC10 mAb or the Ab5 pAb anti-PCNA according to standard immunoblot procedures (Moriceau et al. 2009, J. Immunol. 182:7254-7263). Co-immunoprecipitation experiments were performed using neutrophil cytosols obtained by cavitation (Witko-Sarsat et al. 1999, Blood 94:2487-2496). Cytosol ([…]) was mixed with […] of protein G and Ab5 pAb and incubated for 30 min at 4° C. under shaking. The sample was loaded onto a column containing Sepharose-coated magnetic beads (Milteny), washed with a stringent washing buffer (50 mM Tris, 500 mM NaCl, 1% NP-40, 0.5% Triton X-100). The column was washed twice with this buffer, twice with the same buffer except that the NaCl was 300 mM and, finally, 5 times with a hyposaline buffer (20 mM Tris pH 7.5). The sample was eluted from the column with […] 5× sample buffer and analyzed by Western blotting using different mAb to potential partners. PCNA was detected on the Western blot with the PC10 mAb and procaspases were detected with either anti-procaspase-8 (Calbiochem) mAb or mouse anti-procaspase-10 (Santa Cruz) or anti-procaspase-9 (Santa Cruz) or anti-procaspase-3 (Santa Cruz) mAbs, followed by horseradish peroxidase-conjugated anti-mouse IgG (Nordic Immunology diluted 1:5000), using the SuperSignal West Pico detection kit (Pierce).

neutrophils [2] = test: Effects of the peptides on neutrophil apoptosis (annexin V / 7-AAD flow cytometry); conditions: for Early Apoptosis, Mean / Late Apoptosis, Mean / Total Apoptosis, Mean: peptide concentration = 200 μM, 16 h at 37° C.; for Early Apoptosis, Mean: percentage annexin-V positive and 7-AAD negative; for Late Apoptosis, Mean: percentage annexin-V positive and 7-AAD positive; for Total Apoptosis, Mean: percentage of cells either 7-AAD or annexin-V-positive; for Early Apoptosis / Late Apoptosis / Total Apoptosis: peptide concentration = 500 μM
Experimental: Effects of the peptides on neutrophil apoptosis. Neutrophils were isolated from the blood of healthy volunteers using polymorphoprep (Witko-Sarsat et al. 1999; Blood 94:2487-96). Physiological apoptosis of these neutrophils was then activated by incubating them at 37° C. during 16 h in RPMI culture medium complemented with 10% serum. Under these conditions, neutrophils undergo a spontaneous apoptosis which can be evaluated by measuring the phosphatidylserine externalization (Kantari et al. 2007; Blood 110:4086-95; Moriceau et al. 2009; J Immunol 182:7254-63). Phosphatidylserine was stained using a fluorochrome-coupled annexin V allowing detection of apoptotic neutrophils by flow cytometry using a Facscan (Beckton Dickinson). Neutrophils stained with annexin V express the phosphatidylserine and are recognized and phagocytosed by macrophages. Furthermore, a secondary staining with the 7AAD intercalating agent was used to indicate late apoptosis (Durant et al. 2004; J Leukocyte Biol 75:87-98). Thus, total apoptosis is measured by the percentage of cells being either 7-AAD or annexin-V-positive (the rest of the cells being considered as viable). Early apoptosis is measured by the percentages of neutrophils being both annexin-V positive and 7-AAD negative. Late apoptosis is measured by the percentages of neutrophils being both annexin-V positive and 7-AAD positive. The necrotic cells being 7AAD positive are excluded from the analysis on the basis of the data of size/granulometry by flow cytometry analysis. […]
The peptides were added to the neutrophil cells and their effect on cell apoptosis was analyzed by measuring the phosphatidylserine externalization. Phosphatidylserine was stained using a fluorochrome-coupled annexin V allowing detection of apoptotic neutrophils by flow cytometry. Neutrophils stained with annexin V express the phosphatidylserine and are recognized and phagocytosed by macrophages. Furthermore, a secondary staining with the 7AAD intercalating agent was used to indicate late apoptosis, allowing distinction between early and late apoptosis.

neutrophils [3] = test: Neutrophil apoptosis by mitochondrial depolarization after DiOC6 labeling; set-up: dose or concentration left out as unconfirmed; conditions: 6 h at 37° C., peptide
Experimental: Analysis of apoptosis. Neutrophil apoptosis was triggered by incubating neutrophils at 37° C. alone (constitutive apoptosis) or with anti-Fas mAb (10 ng/ml; Beckman-Coulter) or gliotoxin ([…]; Sigma) (Ward et al. 1999, J. Biol. Chem. 274:4309-4318) for the indicated times. Neutrophil apoptosis was evaluated by phosphatidylserine externalization after annexin-V and 7-AAD labeling (Kantari et al. 2007, Blood 110:4086-4095); mitochondrial depolarization after DiOC6 labeling (Moriceau et al. 2009, J. Immuno1.182:7254-7263); caspase-3 and caspase-8 activities measured by spectrophotometry (Biovision) in neutrophil lysates. In DMF-differentiated-PLB985 cells, apoptosis was triggered by gliotoxin or by rTRAIL (10 ng/ml; RD System) (Yin et al. 2005, Int. J. Biochem. Cell Biol. 37:1696-1708) and caspase-8 and caspase-9 activities were determined after gating on CD11b^+ cells using the Caspase-Glow® assay (Promega). Apoptosis-induced chromatin condensation and DNA fragmentation were assessed, respectively, after DNA staining with the blue fluorescent dye Hoechst (5 mg/ml) and propidium-iodide staining (Goepel et al. 2004, J. Leukoc. Biol. 75:836-843). Carboxyp21 ([…], SEQ ID NO: 24) corresponding to the p21 carboxy-terminus sequence (residues 141-160) and containing a RYIRS carboxy-terminal extension to facilitate its cell entry was synthesized and purified (Genecust). […]

Molecule	Early Apoptosis, Mean (neutrophils [2])	Late Apoptosis, Mean (neutrophils [2])	Total Apoptosis, Mean (neutrophils [2])	Early Apoptosis (neutrophils [2]; Table VI (peptides 5-9))	Late Apoptosis (neutrophils [2]; Table VI (peptides 5-9))	Total Apoptosis (neutrophils [2]; Table VI (peptides 5-9))	further results
CC(C)C[C@@H](C=O)NC(=O)[C@H](CC(C)C)NC(=O)[C@H](CC(C)C)NC(=O)OCc1ccccc1 [MG132, reference compound] (Cbz-Leu-Leu-Leu-aldehyde)							Effect of proteasome inhibitors on neutrophil death (neutrophils [1]): significantly inhibited neutrophil death; Effect of proteasome inhibitors on apoptosis-induced PCNA diminution (PCNA): reversed the apoptosis-induced PCNA diminution
CC(C)C[C@H](NC(=O)[C@H](Cc1ccccc1)NC(=O)c1cnccn1)B(O)O [PS-341, reference compound]							Effect of proteasome inhibitors on neutrophil death (neutrophils [1]): significantly inhibited neutrophil death; Effect on PCNA degradation after incubation with anti-Fas or gliotoxin (PCNA; 6 h at 37° C., PS-341 (1 mM)): reversed PCNA degradation; Effect of proteasome inhibitors on apoptosis-induced PCNA diminution (PCNA): reversed the apoptosis-induced PCNA diminution
APNQEKVSDYEMKLMRYIRS [peptide 1]	62.52	11.47	73.67				Early Apoptosis (neutrophils [2]; Table V (peptides 1-4)): 65.06; Late Apoptosis (neutrophils [2]; Table V (peptides 1-4)): 6.62; Total Apoptosis (neutrophils [2]; Table V (peptides 1-4)): 68.74
KDGVKFRYIRS [peptide 5]	62.44	12.36	74.36	75.21	5.39	77.67	
KRRQTGETDFDHAKAALIFSRYIRS [modified carboxy-21 peptide, reference compound]							Apoptotic neutrophils as cells with depolarized mitochondria after DiOC6 labeling (neutrophils [3]): no such activity was observed
KRRQTSMTDFYHSKRRLIFSRYIRS [carboxyp21]							Apoptotic neutrophils as cells with depolarized mitochondria after DiOC6 labeling (neutrophils [3]): triggered neutrophil apoptosis; Cells with externalized phosphatidylserine after annexin-V labeling (neutrophils [1]; 6 h at 37° C., 50 mM peptide): significantly increased percentage of cells with externalized phosphatidylserine; Effect on G-CSF-induced neutrophil survival (neutrophils [1]; G-CSF 1000 U/ml, carboxyp21 50 μM, 15 h): significantly inhibited G-CSF-induced neutrophil survival; PCNA expression in neutrophils exposed to increasing peptide concentrations (PCNA; 3 h, increasing carboxyp21 concentrations): dose-dependent decrease of PCNA expression
MKLMDLDVEQLGIPEQEYSRYIRS [peptide 3]	63.00	13.27	76.20				Pro- or anti-apoptotic activity on neutrophils, conclusion in words (neutrophils [2]): exhibit a pro-apoptotic activity on neutrophils; Effect on annexin V staining (neutrophil apoptosis), in words (neutrophils [2]; 500 μM): induced an increase of the annexin V staining; Early Apoptosis (neutrophils [2]; Table V (peptides 1-4)): 68.05; Late Apoptosis (neutrophils [2]; Table V (peptides 1-4)): 12.63; Total Apoptosis (neutrophils [2]; Table V (peptides 1-4)): 78.56
MSADVPLRYIRS [peptide 7]	62.60	12.30	74.40	66.26	2.85	64.85	
SQTSNVDKEEEAVRYIRS [peptide 6]	62.91	13.11	76.02	66.43	5.2	67.42	
YGRKKRRQRRRAPNQEKVSDYEMKLM [peptide 2]	52.29	17.38	69.33				Early Apoptosis (neutrophils [2]; Table V (peptides 1-4)): 46.92; Late Apoptosis (neutrophils [2]; Table V (peptides 1-4)): 23.97; Total Apoptosis (neutrophils [2]; Table V (peptides 1-4)): 68.08
YGRKKRRQRRRMKLMDLDVEQLGIPEQEYS [peptide 4]	62.34	27.88	89.83				Pro- or anti-apoptotic activity on neutrophils, conclusion in words (neutrophils [2]): exhibit a pro-apoptotic activity on neutrophils; Effect on annexin V staining (neutrophil apoptosis), in words (neutrophils [2]; 200 μM): induced an increase of the annexin V staining; Pro-apoptotic activity on late apoptosis, in words (neutrophils [2]; 200 μM, Table IV): particularly obvious on late apoptosis; Early Apoptosis (neutrophils [2]; Table V (peptides 1-4)): 53.11; Late Apoptosis (neutrophils [2]; Table V (peptides 1-4)): 33.74; Total Apoptosis (neutrophils [2]; Table V (peptides 1-4)): 82.84
YGRKKRRQRRRYYLAPKIEDEEGS [peptide 9]	50.03	23.90	73.43	48.44	26.32	71.84	Pro- or anti-apoptotic activity on neutrophils, conclusion in words (neutrophils [2]): capable of preventing neutrophil apoptosis
YYLAPKIEDEEGSRYIRS [peptide 8]	40.67	6.23	46.43	48.94	8.99	48.77	Pro- or anti-apoptotic activity on neutrophils, conclusion in words (neutrophils [2]): significant anti-apoptotic activity; also recorded: capable of preventing neutrophil apoptosis
interferon-g: cytokine that prolongs neutrophil survival							Effect on PCNA degradation in neutrophils (PCNA): prevented PCNA degradation
